Measurements: patent US20260000654A1, “USE OF BENCYCLOQUIDIUM BROMIDE, ISOMER THEREOF AND DERIVATIVE THEREOF IN PREPARATION OF OPHTHALMIC FORMULATION” (Beijing Yingu Medicine Sci Techno Co., Ltd., priority 2023, published 2026)
“Also recorded” adds a separate entry of the source.

Test system: animal model of form-deprivation myopia (FDM)
Assay: form-deprivation myopia (FDM) model experiment on colorful guinea pigs
Details: for change value of ocular axial length: 0.05% eye drops once a day, after four weeks, compared with model control group; for body weight: during the experiment, among the groups
Experimental: An animal model of form-deprivation myopia (FDM) was prepared by using the monocular deprived (MD) method, i.e., covering one eye with an opaque eye patch to cause form-deprivation.
Models were established for each group of animals, and drugs were started on the first day of modeling. The model control group (FDM), positive control group (FDM+atropine), and bencycloquidium bromide group (FDM+the eye drops of bencycloquidium bromide) were given blank solvent, 0.05% atropine, and 0.05% eye drops of bencycloquidium bromide by instillation into the conjunctival sac, once a day, 20 L/eye, for a total of four weeks. Among them, the component of the blank solvent is water for injection; the components of 0.05% atropine using water for injection as solvent comprises 0.05% of atropine, 1.0% of polyvinyl alcohol, and 0.02% of benzalkonium chloride; and the osmotic pressure regulator is sodium chloride, and the osmolality of the eye drops is adjusted to 300 to 320 mOsmol/kg, and the pH regulator is phosphate buffer (NaH2PO4—Na2HPO4), which is used to adjust the pH value of the eye drops to 6.8.
The detection indicators were as follows: • (1) Animals are generally observed clinically once a day. • (2) Animal body weight is measured upon receipt, on the 7th and 14th days of quarantine, and twice a week after modeling. • (3) The anterior chamber depth, lens thickness, vitreous cavity depth and ocular axial length were checked before modeling and once a week after administration. • (4) The diopter was checked before modeling and once a week after administration.

| Structure (SMILES) | change value of ocular axial length (guinea pig FDM model) | trend of diopter decline (guinea pig FDM model, 0.05% eye drops per day during four-week modeling period) | body weight (guinea pig FDM model) | preventive effect on myopia (guinea pig FDM myopia model) |
| --- | --- | --- | --- | --- |
| C[N+]12CCC(CC1)C(OCC(O)(c1ccccc1)C1CCCC1)C2 (stereo not drawn) [bencycloquidium bromide] | significantly reduced; also recorded: significantly inhibit | significantly inhibit the trend of diopter decline | no significant difference in body weight | significant preventive effect |
| CN1[C@@H]2CC[C@H]1C[C@@H](OC(=O)C(CO)c1ccccc1)C2 (stereo partly drawn) [atropine] | significantly reduced |  | no significant difference in body weight |  |
